Activity calls are given as the source filed them. The rule behind the calls is not given here.

In general, Ki refers to a dissociation constant, usually derived from enzyme kinetics or from competition with a known ligand. A low value points to tighter binding.

For assay [1], the target named is Sodium-dependent serotonin transporter (Homo sapiens, UniProt P31645). The experiment in a line: Binding affinity at human SERT.
In assay [2] the target is Sodium-dependent serotonin transporter (Rattus norvegicus, UniProt P31652). The assay can be described thus: Binding affinity at rat SERT.
In assay [3] the test system is Mus musculus. The assay can be described thus: Effect on 5HTP induced mouse head twitch model at 10 mg/kg after 1 hr. The assay is classed as functional, organism-based. More on the design: dose 10 mg/kg.
Assay [4] relates to Mus musculus. The assay can be described thus: Effect on 5HTP induced mouse head twitch model at 10 mg/kg after 24 hrs. The assay is classed as functional.
Assay [5] concerns the target Histamine H3 receptor (Homo sapiens, UniProt Q9Y5N1). The assay can be described thus: Antagonistic activity at H3 receptor expressed in […] cells assessed as forskolin stimulated cyclic AMP accumulation by functional assay. The format is cell-based, SK-N-MC. The settings on record: read-out: pA2 (converted).

Sequence of Sodium-dependent serotonin transporter (Homo sapiens, UniProt P31645) (P31645 whole entry): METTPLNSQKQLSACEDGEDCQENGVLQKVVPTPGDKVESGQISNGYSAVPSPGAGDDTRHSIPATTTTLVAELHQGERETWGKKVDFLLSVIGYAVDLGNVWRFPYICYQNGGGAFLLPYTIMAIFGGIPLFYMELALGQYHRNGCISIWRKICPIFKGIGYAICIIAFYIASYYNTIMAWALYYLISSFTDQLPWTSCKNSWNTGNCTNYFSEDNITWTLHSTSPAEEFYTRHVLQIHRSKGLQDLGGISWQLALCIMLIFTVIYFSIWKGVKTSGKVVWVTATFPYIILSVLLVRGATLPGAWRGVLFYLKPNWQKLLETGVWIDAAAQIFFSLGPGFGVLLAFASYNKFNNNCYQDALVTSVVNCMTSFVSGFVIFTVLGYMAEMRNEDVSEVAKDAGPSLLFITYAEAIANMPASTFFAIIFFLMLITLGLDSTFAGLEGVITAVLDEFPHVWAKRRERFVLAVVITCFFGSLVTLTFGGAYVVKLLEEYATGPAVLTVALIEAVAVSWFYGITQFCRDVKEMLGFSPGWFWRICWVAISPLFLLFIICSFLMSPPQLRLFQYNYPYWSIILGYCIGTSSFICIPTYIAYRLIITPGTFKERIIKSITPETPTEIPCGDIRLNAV
Sequence of Histamine H3 receptor (Q9Y5N1 whole entry): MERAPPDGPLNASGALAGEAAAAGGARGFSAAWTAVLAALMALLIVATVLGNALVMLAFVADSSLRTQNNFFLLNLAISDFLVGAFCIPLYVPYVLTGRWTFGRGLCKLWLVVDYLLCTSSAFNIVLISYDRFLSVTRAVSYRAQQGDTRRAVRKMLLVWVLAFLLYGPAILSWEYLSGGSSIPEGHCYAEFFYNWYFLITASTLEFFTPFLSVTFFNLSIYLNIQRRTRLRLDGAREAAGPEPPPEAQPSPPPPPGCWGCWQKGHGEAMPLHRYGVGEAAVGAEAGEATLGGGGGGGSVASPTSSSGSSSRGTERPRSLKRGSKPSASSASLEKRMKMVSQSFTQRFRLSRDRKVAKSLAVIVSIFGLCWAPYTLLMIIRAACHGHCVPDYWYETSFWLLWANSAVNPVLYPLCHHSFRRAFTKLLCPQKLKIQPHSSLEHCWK
Sequence of Sodium-dependent serotonin transporter (Rattus norvegicus, UniProt P31652) (P31652 whole entry): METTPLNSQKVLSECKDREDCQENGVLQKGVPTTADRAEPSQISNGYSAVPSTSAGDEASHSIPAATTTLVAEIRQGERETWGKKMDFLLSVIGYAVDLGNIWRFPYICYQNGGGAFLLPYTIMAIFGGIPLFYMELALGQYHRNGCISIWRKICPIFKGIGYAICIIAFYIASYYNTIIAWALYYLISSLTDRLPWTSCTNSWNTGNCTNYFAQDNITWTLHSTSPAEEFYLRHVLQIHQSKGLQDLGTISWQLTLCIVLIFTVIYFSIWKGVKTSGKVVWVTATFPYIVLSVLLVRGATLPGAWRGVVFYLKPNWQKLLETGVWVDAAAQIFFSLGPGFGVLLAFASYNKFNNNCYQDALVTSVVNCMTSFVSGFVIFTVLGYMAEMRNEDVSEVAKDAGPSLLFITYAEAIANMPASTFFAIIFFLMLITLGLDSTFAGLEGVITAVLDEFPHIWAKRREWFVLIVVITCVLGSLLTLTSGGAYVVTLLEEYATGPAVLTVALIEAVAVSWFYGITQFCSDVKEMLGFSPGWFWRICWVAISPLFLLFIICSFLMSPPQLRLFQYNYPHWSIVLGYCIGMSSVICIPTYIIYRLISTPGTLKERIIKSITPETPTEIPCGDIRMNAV

`CN(C)CCC(Oc1ccccc1)c1ccc(OCCCN2CCCCC2)cc1` (centres undefined) registered a Ki in assay [1] of 25.7 nM.
As for `CSc1ccc(C2CN(C)Cc3cc(Oc4cncc(CN5CCCCC5)c4)ccc32)cc1` (centres undefined), the figures for the inhibition constant (Ki) in assay [1] and in assay [2] were 8.3 nM and 9.7 nM, respectively.
For the molecule `CSc1ccc(C2CN(C)Cc3cc(Oc4nc(CN5CCOCC5)cs4)ccc32)cc1` (centres undefined), the Ki was 15.5 nM in assay [1] and 14 nM in assay [2].
`CSc1ccc(C2CN(C)Cc3cc(Oc4ccc(CN5CCCCC5)cn4)ccc32)cc1` (centres undefined): the outcome in assay [3] was inactive. Moreover, in assay [4], the Activity is 272%. Moreover, the Kb in assay [5] is 20 nM.
As to `CSc1ccc(C2CN(C)Cc3cc(Oc4nc(CN5CCCCC5)cs4)ccc32)cc1` (centres undefined), the Kb in assay [5] was 20 nM.

For the origin of these results see ChEMBL document CHEMBL1137450, “Dual serotonin transporter inhibitor/histamine H3 antagonists: development of rigidified H3 pharmacophores” (Bioorg Med Chem Lett, 2007).
